Source: patent US20240409585A1, “MACROCYCLIC IMMUNOMODULATORS” (priority 2021, published 2024)
Bridge positions count the residues as written; N and C are the ends. Square brackets hold non-standard residues; d marks the D form. Peptide text beside a SMILES is read from it. * marks the point of attachment. ξ: configuration not given here. Phe(4-COOH) = N[C@@H](Cc1ccc(C(=O)O)cc1)C(=O)O; Bip = N[C@@H](Cc1ccc(-c2ccccc2)cc1)C(=O)O; Phe(4-CN) = N#Cc1ccc(C[C@H](N)C(=O)O)cc1; Phe(3-Me) = Cc1cccc(C[C@H](N)C(=O)O)c1; Bta = N[C@@H](Cc1csc2ccccc12)C(=O)O; Val(3-OH) = CC(C)(O)[C@H](N)C(=O)O; 4Pal = N[C@@H](Cc1ccncc1)C(=O)O; Cha = N[C@@H](CC1CCCCC1)C(=O)O; Cit = NC(=O)NCCC[C@H](N)C(=O)O; Ile(3ξ) = CCC(C)[C@H](N)C(=O)O; Thr(3ξ) = CC(O)[C@H](N)C(=O)O; ξCha = NC(CC1CCCCC1)C(=O)O; Pip = O=C(O)[C@@H]1CCCCN1; Carboxymethyl = O=C(O)C*; NMeA = CN[C@@H](C)C(=O)O; Orn = NCCC[C@H](N)C(=O)O; Dab = NCC[C@H](N)C(=O)O

Each molecule was assayed against T1, PE-labeled human PD-L1-Ig binding to Jurkat cell line over-expressing human PD-1 (Jurkat-PD-1) (Homo sapiens, UniProt Q15116) (assay: Jurkat-PD-1 Cell Binding High-Content Screening Assay (CBA): Method 1). Settings: Jurkat-PD-1 cells, PE-labeled PD-L1-Ig; μM; read-out: CBA Method 1 μM.
T1 construct: expressed in transfected cells; host or cells: Jurkat
T1 sequence (Q15116 25-288): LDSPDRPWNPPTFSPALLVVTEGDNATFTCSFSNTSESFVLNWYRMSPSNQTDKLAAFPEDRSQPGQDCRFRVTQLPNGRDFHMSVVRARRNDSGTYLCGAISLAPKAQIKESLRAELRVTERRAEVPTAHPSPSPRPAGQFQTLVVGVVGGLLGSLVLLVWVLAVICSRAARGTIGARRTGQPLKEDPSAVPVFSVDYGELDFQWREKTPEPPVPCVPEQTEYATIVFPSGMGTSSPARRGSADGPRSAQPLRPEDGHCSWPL

IC50 [µM]	Compound
0.03	CCC(C)[C@@H]1NC(=O)[C@H](Cc2ccc(-c3ccccc3)cc2)NC(=O)[C@H](C(C)C)NC(=O)[C@H](Cc2c[nH]c3ccccc23)NC(=O)[C@H](CC(=O)O)NC(=O)[C@H](Cc2ccc(OCC(=O)O)cc2)NC(=O)[C@H](C(C)O)NC(=O)CSC[C@@H](C(=O)N[C@@H](CO)C(=O)NCC(=O)N[C@@H](CO)C(N)=O)NC(=O)[C@H](C(C)O)NC(=O)[C@H](C(C)C)NC(=O)C(CC2CCCCC2)NC(=O)[C@H](CCN)NC(=O)[C@@H](CC(C)C)NC(=O)[C@H](C)N(C)C1=O (stereo partly drawn) [Example 5003] ({CH2CO}-[Thr(3ξ)]Y(Carboxymethyl)DWV[Bip][Ile(3ξ)][NMeA][dL][Dab][ξCha]V[Thr(3ξ)]CSGS-NH2; thioether N-14)

Same assay, conditions: Jurkat-hPD-1 cells, PE-labeled PD-L1-Ig 20 nM final; read-out: Jurkat HPDL1 PD1 IC50 (uM) (Method 1)

IC50 [µM]	Compound
0.03	CC(C)C[C@@H]1NC(=O)[C@H](CCN)NC(=O)[C@@H](CC(C)C)NC(=O)[C@@H]2CCCCN2C(=O)[C@H](Cc2cnc[nH]2)NC(=O)[C@H](Cc2ccc(-c3ccccc3)cc2)NC(=O)[C@H](C(C)C)NC(=O)[C@H](Cc2c[nH]c3ccccc23)NC(=O)[C@H](CC(=O)O)NC(=O)[C@H](Cc2ccc(O)cc2)NC(=O)[C@H](CC(N)=O)NC(=O)CSC[C@@H](C(=O)N[C@@H](C)C(N)=O)NC(=O)[C@H]([C@@H](C)O)NC(=O)[C@H](C(C)C)NC1=O [Compound 1381] ({CH2CO}-NYDWV[Bip]H[Pip][dL][Dab]LVTCA-NH2; thioether N-14)
0.01	CC(C)C[C@@H]1NC(=O)[C@H](Cc2c[nH]c3ccccc23)NC(=O)[C@H](CC(=O)O)NC(=O)[C@H](Cc2ccc(C(=O)O)cc2)NC(=O)[C@H](Cc2ccc(OCC(=O)O)cc2)NC(=O)CSC[C@@H](C(=O)N[C@@H](CCN)C(N)=O)NC(=O)[C@H](CO)NC(=O)[C@H](C(C)(C)O)NC(=O)[C@H](CC2CCCCC2)NC(=O)[C@H](CCN)NC(=O)[C@@H](CC(C)C)NC(=O)[C@H](C)N(C)C(=O)[C@H](C(C)(C)O)NC(=O)[C@H](Cc2ccc(-c3ccccc3)cc2)NC1=O [Compound 1716] ({CH2CO}-Y(Carboxymethyl)[Phe(4-COOH)]DWL[Bip][Val(3-OH)][NMeA][dL][Dab][Cha][Val(3-OH)]SC[Dab]-NH2; thioether N-14)
0.01	Cc1cccc(C[C@@H]2NC(=O)[C@H](CC(=O)O)NC(=O)[C@H](Cc3ccc(OCC(=O)O)cc3)NC(=O)[C@H](Cc3ccncc3)NC(=O)CSC[C@@H](C(=O)N[C@@H](CCN)C(N)=O)NC(=O)[C@H](C(C)O)NC(=O)[C@H](C(C)(C)O)NC(=O)[C@H](CC3CCCCC3)NC(=O)[C@H](CCN)NC(=O)[C@@H](CC(C)C)NC(=O)[C@H](C)N(C)C(=O)[C@H](Cc3ccc(OCC(=O)O)cc3)NC(=O)[C@H](Cc3ccc(-c4ccccc4)cc3)NC(=O)[C@H](Cc3ccc(C(=O)O)cc3)NC2=O)c1 (stereo partly drawn) [Compound 2146] ({CH2CO}-[4Pal]Y(Carboxymethyl)D[Phe(3-Me)][Phe(4-COOH)][Bip]Y(Carboxymethyl)[NMeA][dL][Dab][Cha][Val(3-OH)][Thr(3ξ)]C[Dab]-NH2; thioether N-14)
0.64	CC(C)C[C@@H]1NC(=O)[C@H](CCCNC(=N)N)NC(=O)[C@@H](Cc2cnc[nH]2)NC(=O)[C@H](C)N(C)C(=O)[C@H](CCCNC(=N)N)NC(=O)[C@H](Cc2ccc(-c3ccccc3)cc2)NC(=O)[C@H](C(C)C)NC(=O)[C@H](Cc2c[nH]c3ccccc23)NC(=O)[C@H](CC(=O)O)NC(=O)[C@H](Cc2ccc(O)cc2)NC(=O)[C@H](Cc2ccccc2)NC(=O)CSC[C@@H](C(=O)NCC(N)=O)NC(=O)[C@H](CO)NC(=O)[C@H](C(C)C)NC1=O [Compound 1022] ({CH2CO}-FYDWV[Bip]R[NMeA][dH]RLVSCG-NH2; thioether N-14)
0.01	CC[C@H](C)[C@@H]1NC(=O)[C@H](Cc2ccc(-c3ccccc3)cc2)NC(=O)[C@H](C(C)C)NC(=O)[C@H](Cc2cccc(C)c2)NC(=O)[C@H](CC(=O)O)NC(=O)[C@H](Cc2ccc(O)cc2)NC(=O)[C@H](CC(N)=O)NC(=O)CSC[C@@H](C(=O)N[C@@H](CCN)C(N)=O)NC(=O)[C@H](CCC(=O)O)NC(=O)[C@H](C(C)(C)O)NC(=O)[C@H](CC2CCCCC2)NC(=O)[C@H](CCN)NC(=O)[C@@H](CC(C)C)NC(=O)[C@H](C)N(C)C1=O [Compound 1695] ({CH2CO}-NYD[Phe(3-Me)]V[Bip]I[NMeA][dL][Dab][Cha][Val(3-OH)]EC[Dab]-NH2; thioether N-14)
0.21	CC(C)C[C@@H]1NC(=O)[C@H](CCCN)NC(=O)[C@@H](CC(C)C)NC(=O)[C@H](C)N(C)C(=O)[C@H](CCCNC(=N)N)NC(=O)[C@H](Cc2ccc(-c3ccccc3)cc2)NC(=O)[C@H](C(C)C)NC(=O)[C@H](Cc2c[nH]c3ccccc23)NC(=O)[C@H](CC(=O)O)NC(=O)[C@H](Cc2cnc[nH]2)NC(=O)[C@H](Cc2cnc[nH]2)NC(=O)CSC[C@@H](C(=O)N[C@@H](C)C(N)=O)NC(=O)[C@H]([C@@H](C)O)NC(=O)[C@H](C(C)C)NC1=O [Compound 1136] ({CH2CO}-HHDWV[Bip]R[NMeA][dL][Orn]LVTCA-NH2; thioether N-14)
0.02	Cc1cccc(C[C@@H]2NC(=O)[C@H](Cc3ccncc3)NC(=O)CSC[C@@H](C(=O)NCC(N)=O)NC(=O)[C@H](CO)NC(=O)[C@H](C(C)C)NC(=O)[C@H](CC(C)C)NC(=O)[C@H](CC(N)=O)NC(=O)[C@@H](CC(C)C)NC(=O)[C@H](C)N(C)C(=O)[C@H](C(C)C)NC(=O)[C@H](Cc3ccc(-c4ccccc4)cc3)NC(=O)[C@H](CC(C)C)NC(=O)[C@H](Cc3c[nH]c4ccccc34)NC(=O)[C@H](CC(=O)O)NC2=O)c1 [Compound 1519] ({CH2CO}-[4Pal][Phe(3-Me)]DWL[Bip]V[NMeA][dL]NLVSCG-NH2; thioether N-14)
0.1	CC[C@H](C)[C@@H]1NC(=O)[C@H](Cc2ccc(-c3ccccc3)cc2)NC(=O)[C@H](C(C)C)NC(=O)[C@H](Cc2cccc(C)c2)NC(=O)[C@H](CC(=O)O)NC(=O)[C@H](Cc2ccc(O)cc2)NC(=O)[C@H](CC(N)=O)NC(=O)CSC[C@@H](C(=O)N[C@H](C)C(N)=O)NC(=O)[C@H]([C@@H](C)O)NC(=O)[C@H](C(C)(C)O)NC(=O)[C@H](CC(C)C)NC(=O)[C@H](CCN)NC(=O)[C@@H](CC(C)C)NC(=O)[C@H](C)N(C)C1=O [Compound 1685] ({CH2CO}-NYD[Phe(3-Me)]V[Bip]I[NMeA][dL][Dab]L[Val(3-OH)]TC[dA]-NH2; thioether N-14)
0.08	CC(C)C[C@@H]1NC(=O)[C@H](CCN)NC(=O)[C@@H](CC(C)C)NC(=O)[C@H](C)N(C)C(=O)[C@H](CCCNC(=N)N)NC(=O)[C@H](Cc2ccc(-c3ccccc3)cc2)NC(=O)[C@H](C(C)C)NC(=O)[C@H](Cc2c[nH]c3ccccc23)NC(=O)[C@H](CC(=O)O)NC(=O)[C@H](Cc2ccc(C#N)cc2)NC(=O)[C@H](Cc2ccncc2)NC(=O)CSC[C@@H](C(=O)N[C@@H](C)C(N)=O)NC(=O)[C@H]([C@@H](C)O)NC(=O)[C@H](C(C)C)NC1=O [Compound 1446] ({CH2CO}-[4Pal][Phe(4-CN)]DWV[Bip]R[NMeA][dL][Dab]LVTCA-NH2; thioether N-14)
0.16	CC(C)C[C@@H]1NC(=O)[C@H](CCCN)NC(=O)[C@H](Cc2csc3ccccc23)NC(=O)[C@H](C)N(C)C(=O)[C@H](CCC(=O)O)NC(=O)[C@H](Cc2ccc(-c3ccccc3)cc2)NC(=O)[C@H](C(C)C)NC(=O)[C@H](Cc2c[nH]c3ccccc23)NC(=O)[C@H](CC(=O)O)NC(=O)[C@H](Cc2ccc(O)cc2)NC(=O)[C@H](Cc2ccccc2)NC(=O)CSC[C@@H](C(=O)N[C@@H](C)C(N)=O)NC(=O)[C@H]([C@@H](C)O)NC(=O)[C@H](C(C)C)NC1=O [Compound 1132] ({CH2CO}-FYDWV[Bip]E[NMeA][Bta][Orn]LVTCA-NH2; thioether N-14)
0.04	CC(C)C[C@@H]1NC(=O)[C@H](CCCCN)NC(=O)[C@@H](CC(C)C)NC(=O)[C@H](C)N(C)C(=O)[C@H](CCC(=O)O)NC(=O)[C@H](Cc2ccc(-c3ccccc3)cc2)NC(=O)[C@H](C(C)C)NC(=O)[C@H](Cc2c[nH]c3ccccc23)NC(=O)[C@H](CC(=O)O)NC(=O)[C@H](Cc2ccc(O)cc2)NC(=O)[C@H](Cc2ccncc2)NC(=O)CSC[C@@H](C(=O)N[C@@H](C)C(N)=O)NC(=O)[C@H](C(C)O)NC(=O)[C@H](C(C)C)NC1=O (stereo partly drawn) [Compound 2057] ({CH2CO}-[4Pal]YDWV[Bip]E[NMeA][dL]KLV[Thr(3ξ)]CA-NH2; thioether N-14)
0.04	CC(C)C[C@@H]1NC(=O)[C@H](CCCNC(=N)N)NC(=O)[C@@H](CC(C)C)NC(=O)[C@H](C)N(C)C(=O)[C@H](CCCNC(=N)N)NC(=O)[C@H](Cc2ccc(-c3ccccc3)cc2)NC(=O)[C@H](C(C)C)NC(=O)[C@H](Cc2c[nH]c3ccccc23)NC(=O)[C@H](CC(=O)O)NC(=O)[C@H](Cc2ccc(O)cc2)NC(=O)[C@H](CCC(N)=O)NC(=O)CSC[C@@H](C(=O)N[C@@H](C)C(N)=O)NC(=O)[C@H](CO)NC(=O)[C@H](C(C)C)NC1=O [Compound 1029] ({CH2CO}-QYDWV[Bip]R[NMeA][dL]RLVSCA-NH2; thioether N-14)
0.07	CC(C)C[C@@H]1NC(=O)[C@H](CCN)NC(=O)[C@@H](CC(C)C)NC(=O)[C@H](C)N(C)C(=O)[C@H](Cc2ccc(O)cc2)NC(=O)[C@H](Cc2ccc(-c3ccccc3)cc2)NC(=O)[C@H](C(C)C)NC(=O)[C@H](Cc2c[nH]c3ccccc23)NC(=O)[C@H](CC(=O)O)NC(=O)[C@H](Cc2ccc(O)cc2)NC(=O)[C@H](CC(N)=O)NC(=O)CSC[C@@H](C(=O)N[C@@H](C)C(N)=O)NC(=O)[C@H]([C@@H](C)O)NC(=O)[C@H](C(C)C)NC1=O [Compound 1303] ({CH2CO}-NYDWV[Bip]Y[NMeA][dL][Dab]LVTCA-NH2; thioether N-14)
0.06	CC(C)C[C@@H]1NC(=O)[C@H](CCCNC(=N)N)NC(=O)[C@@H](CC(C)C)NC(=O)[C@H](C)N(C)C(=O)[C@H](CCCNC(N)=O)NC(=O)[C@H](Cc2ccc(-c3ccccc3)cc2)NC(=O)[C@H](C(C)C)NC(=O)[C@H](Cc2c[nH]c3ccccc23)NC(=O)[C@H](CC(=O)O)NC(=O)[C@H](Cc2ccc(O)cc2)NC(=O)[C@H](CC(N)=O)NC(=O)CSC[C@@H](C(=O)N[C@@H](C)C(N)=O)NC(=O)[C@H]([C@@H](C)O)NC(=O)[C@H](C(C)C)NC1=O [Compound 1166] ({CH2CO}-NYDWV[Bip][Cit][NMeA][dL]RLVTCA-NH2; thioether N-14)
